Consider 24 compounds from US8901314B2, “Substituted pyrazoles as N-type calcium channel blockers” (Janssen Pharmaceutica NV, priority 2012, dated 2014).

In test [1] the test system is Cav2.2 (N-type calcium channel; α1B, α2δ and β3 subunits stably expressed in HEK293 cells). Put plainly: Automated electrophysiology assay (QPatch-HT patch clamp). Format: cell-based. The settings on record: 0.1 μM; for QPatch % Inhibition, High Freq: high frequency stimulation (15th pulse of 5 Hz train); for QPatch % Inhibition, Low Freq: low frequency stimulation (1st pulse of train). Put shortly:
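Whole-cell automated patch clamp of HEK293 cells stably expressing α1B, α2δ-1 and β3, with 10 mM Ba²⁺/TEA external solution and CsCl internal solution. From −80 mV, trains of 15 pulses to +20 mV at 5 Hz every 30 s. Pulse 1 and pulse 15 currents normalized to the no-compound control period, with CdCl2 used to zero the current.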
On the technique in general: Patch clamp records ionic current or voltage across a cell membrane.

For test [2], the target named is α1B (Cav2.2), β3 and α2δ subunits of the N-type calcium channel (stable HEK cell line) (Rattus norvegicus, UniProt Q02294). Put plainly: Calcium-dye indicator assay (FDSS, KCl depolarization). Format: cell-based. The following applies: calcium mobilization response to 50 mM KCl; six-point concentration-response. The method, boiled down:
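HEK cells stably co-expressing α1B, β3 and α2δ subunits, loaded with calcium dye, exposed to compound for 5 min before 50 mM KCl depolarization, 3 min further read on FDSS. Maximal fluorescence normalized to KCl maximum and buffer minimum; IC50 by sigmoidal nonlinear regression.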
In general terms: Calcium flux is commonly read through the fluorescence of an indicator in the cells.

A word on the IC50: it is the concentration that inhibits the measured activity by half. Consider `COc1ccccc1-n1nc(C2CC(C)(C)OC(C)(C)C2)cc1-c1ccc(C(C)(C)C)cc1` [Compound 15, 5-(4-tert-Butylphenyl)-1-(2-methoxyphenyl)-3-(2,2,6,6-tetramethyltetrahydro-2H-pyran-4-yl)-1H-pyrazole], for which, in test [1], the “QPatch % Inhibition, High Freq” value came out at 37% and the “QPatch % Inhibition, Low Freq” value was determined as 20%. Also, the IC50 in test [2] was 4.9 nM.

`COc1ccccc1-n1nc(C2CC(C)(C)OC(C)(C)C2)cc1-c1ccccc1` [Compound 16, 1-(2-Methoxyphenyl)-5-phenyl-3-(2,2,6,6-tetramethyltetrahydro-2H-pyran-4-yl)-1H-pyrazole]: in test [1], the “QPatch % Inhibition, High Freq” value is given as 51% and the “QPatch % Inhibition, Low Freq” value is given as 37%. For the same compound, the half-maximal inhibitory concentration (IC50) in test [2] worked out at 5.1 nM.

On to `CCOC(=O)c1ccc(-c2cc(C3CC(C)(C)OC(C)(C)C3)nn2-c2ccccc2OC)cc1` [Compound 17, Ethyl 4-[1-(2-methoxyphenyl)-3-(2,2,6,6-tetramethyltetrahydro-2H-pyran-4-yl)-1H-pyrazol-5-yl]benzoate], for which, in test [1], the “QPatch % Inhibition, High Freq” value is listed as 82% and the “QPatch % Inhibition, Low Freq” value is 84%. In addition, in test [2], the half-maximal inhibitory concentration (IC50) is 5.1 nM.

`COc1ccccc1-n1nc(C2CC(C)(C)OC(C)(C)C2)cc1-c1cc(C)cs1` [Compound 18, 1-(2-Methoxyphenyl)-5-(4-methylthiophen-2-yl)-3-(2,2,6,6-tetramethyltetrahydro-2H-pyran-4-yl)-1H-pyrazole]: in test [1], the “QPatch % Inhibition, High Freq” value worked out at 16% and the “QPatch % Inhibition, Low Freq” value is on record as −23%. Also, the IC50 in test [2] is 5.3 nM.

`CCOc1ccc(-c2cc(C3CC(C)(C)OC(C)(C)C3)nn2-c2ccccc2OC)cn1` [Compound 19, 2-Ethoxy-5-[1-(2-methoxyphenyl)-3-(2,2,6,6-tetramethyltetrahydro-2H-pyran-4-yl)-1H-pyrazol-5-yl]-pyridine]: in test [1], the “QPatch % Inhibition, High Freq” value was 21% and the “QPatch % Inhibition, Low Freq” value is 10%. Also, in test [2], the IC50 came out at 5.4 nM.

Regarding `COc1cccc(-c2cc(C3CC(C)(C)OC(C)(C)C3)nn2-c2ccccc2OC)c1` [Compound 20, 1-(2-Methoxyphenyl)-5-(3-methoxyphenyl)-3-(2,2,6,6-tetramethyltetrahydro-2H-pyran-4-yl)-1H-pyrazole], in test [1], the “QPatch % Inhibition, High Freq” value was 45% and the “QPatch % Inhibition, Low Freq” value is 38%. The IC50 in test [2] was determined as 5.5 nM.

As to `COc1ccccc1-n1nc(C2CC(C)(C)OC(C)(C)C2)cc1-c1ccccc1N` [Compound 22, 2-[1-(2-Methoxyphenyl)-3-(2,2,6,6-tetramethyltetrahydro-2H-pyran-4-yl)-1H-pyrazol-5-yl]-aniline], in test [1], the “QPatch % Inhibition, High Freq” value is reported as 0% and the “QPatch % Inhibition, Low Freq” value was 0%. Besides, the IC50 in test [2] was 6 nM.

In the case of `COc1ccccc1-n1nc(C2CC(C)(C)OC(C)(C)C2)cc1-c1ccc(C)nc1` [Compound 23, 5-[1-(2-Methoxyphenyl)-3-(2,2,6,6-tetramethyltetrahydro-2H-pyran-4-yl)-1H-pyrazol-5-yl]-2-methylpyridine], in test [1], the “QPatch % Inhibition, High Freq” value is reported as −8% and the “QPatch % Inhibition, Low Freq” value was −19%. Further, the half-inhibitory concentration (IC50) in test [2] was 6.2 nM.

Consider `COc1ccccc1-n1nc(C2CC(C)(C)OC(C)(C)C2)cc1-c1cccs1` [Compound 26, 1-(2-Methoxyphenyl)-3-(2,2,6,6-tetramethyltetrahydro-2H-pyran-4-yl)-5-thiophen-2-yl-1H-pyrazole], for which, in test [1], the “QPatch % Inhibition, High Freq” value was determined as 42% and the “QPatch % Inhibition, Low Freq” value worked out at 24%. The concentration for half-maximal inhibition (IC50) in test [2] is 12 nM.

For `COc1ccccc1-n1nc(C2CC(C)(C)OC(C)(C)C2)cc1-c1ccc(C)o1` [Compound 28, 1-(2-Methoxyphenyl)-5-(5-methylfuran-2-yl)-3-(2,2,6,6-tetramethyltetrahydro-2H-pyran-4-yl)-1H-pyrazole], in test [1], the “QPatch % Inhibition, High Freq” value was −5% and the “QPatch % Inhibition, Low Freq” value is −18%. For the same compound, in test [2], the half-inhibitory concentration (IC50) is 17 nM.

`COc1ccccc1-n1nc(C2CC(C)(C)OC(C)(C)C2)cc1-c1ccc(N(C)C)nc1` [Compound 31, 5-[1-(2-Methoxyphenyl)-3-(2,2,6,6-tetramethyltetrahydro-2H-pyran-4-yl)-1H-pyrazol-5-yl]-N,N-dimethylpyridin-2-amine]: in test [1], the “QPatch % Inhibition, High Freq” value stood at 1% and the “QPatch % Inhibition, Low Freq” value is 4%. Also, in test [2], the IC50 was found to be 3.5 nM.

For the compound `COc1ccccc1-n1nc(C2CC(C)(C)OC(C)(C)C2)cc1-c1ccc(C(C)O)cc1` (stereo not drawn) [Compound 44, 1-{4-[1-(2-Methoxyphenyl)-3-(2,2,6,6-tetramethyltetrahydro-2H-pyran-4-yl)-1H-pyrazol-5-yl]-phenyl}-ethanol], in test [1], the “QPatch % Inhibition, High Freq” value came to 6% and the “QPatch % Inhibition, Low Freq” value is given as 20%. For the same compound, the half-maximal inhibitory concentration (IC50) in test [2] was determined as 19 nM.

For `CN(C)c1ccccc1-n1nc(C2CC(C)(C)OC(C)(C)C2)cc1-c1ccc(Cl)cc1` [Compound 49, 2-[5-(4-Chlorophenyl)-3-(2,2,6,6-tetramethyltetrahydro-2H-pyran-4-yl)-1H-pyrazol-1-yl]-N,N-dimethylaniline], in test [1], the “QPatch % Inhibition, High Freq” value stood at 47% and the “QPatch % Inhibition, Low Freq” value turned out to be 33%. Also, the 50% inhibitory concentration (IC50) in test [2] came to 5.5 nM.

For the compound `CNc1ccccc1-n1nc(C2CC(C)(C)OC(C)(C)C2)cc1-c1ccc(Cl)cc1` [Compound 60, 2-[5-(4-Chlorophenyl)-3-(2,2,6,6-tetramethyltetrahydro-2H-pyran-4-yl)-1H-pyrazol-1-yl]-N-methylaniline], in test [1], the “QPatch % Inhibition, High Freq” value was 48% and the “QPatch % Inhibition, Low Freq” value was found to be 31%. Also, the IC50 in test [2] is 7 nM.

For the compound `COc1ccccc1-n1nc(C2CCOC(C)(C)C2)cc1-c1ccc(Cl)cc1` (stereo not drawn) [Compound 62, 5-(4-Chlorophenyl)-3-(2,2-dimethyltetrahydro-2H-pyran-4-yl)-1-(2-methoxyphenyl)-1H-pyrazole], in test [1], the “QPatch % Inhibition, High Freq” value is recorded as 67% and the “QPatch % Inhibition, Low Freq” value was 45%. For the same compound, the concentration for half-maximal inhibition (IC50) in test [2] came to 2 nM.

Consider `COc1ccccc1-n1nc([C@H]2C[C@@H](C)O[C@@H](C)C2)cc1-c1ccc(Cl)cc1` [Compound 63, 5-(4-Chlorophenyl)-3-[(2R,4r,6S)-2,6-dimethyltetrahydro-2H-pyran-4-yl]-1-(2-methoxyphenyl)-1H-pyrazole], for which, in test [1], the “QPatch % Inhibition, High Freq” value is 74.5% and the “QPatch % Inhibition, Low Freq” value amounted to 60%. Also, the IC50 in test [2] was 2.5 nM.

For `CC1(C)CC(c2cc(-c3ccc(Cl)cc3)n(-c3ccccc3[N+](=O)[O-])n2)CC(C)(C)O1` [Compound 65, 5-(4-Chlorophenyl)-1-(2-nitrophenyl)-3-(2,2,6,6-tetramethyltetrahydro-2H-pyran-4-yl)-1H-pyrazole], in test [1], the “QPatch % Inhibition, High Freq” value stood at 50% and the “QPatch % Inhibition, Low Freq” value is recorded as 44%. In addition, the half-maximal inhibitory concentration (IC50) in test [2] turned out to be 7.8 nM.

With `CCNc1ccccc1-n1nc(C2CC(C)(C)OC(C)(C)C2)cc1-c1ccc(Cl)cc1` [Compound 66, 2-[5-(4-Chlorophenyl)-3-(2,2,6,6-tetramethyltetrahydro-2H-pyran-4-yl)-1H-pyrazol-1-yl]-N-ethylaniline], in test [1], the “QPatch % Inhibition, High Freq” value was 25% and the “QPatch % Inhibition, Low Freq” value came out at 7%. Besides, the concentration for half-maximal inhibition (IC50) in test [2] was determined as 9.4 nM.

Turning to `CC1(C)CC(c2cc(-c3ccc(Cl)cc3)n(-c3ccccc3N)n2)CC(C)(C)O1` [Compound 68, 2-[5-(4-Chlorophenyl)-3-(2,2,6,6-tetramethyltetrahydro-2H-pyran-4-yl)-1H-pyrazol-1-yl]aniline], in test [1], the “QPatch % Inhibition, High Freq” value is on record as 14% and the “QPatch % Inhibition, Low Freq” value is recorded as −9%. The IC50 in test [2] turned out to be 20 nM.

`COc1ccccc1-n1nc(C2CC(C)(C)OC(C)(C)C2)c(Br)c1-c1ccc(Cl)cc1` [Compound 70, 4-Bromo-5-(4-chlorophenyl)-1-(2-methoxyphenyl)-3-(2,2,6,6-tetramethyltetrahydro-2H-pyran-4-yl)-1H-pyrazole]: in test [1], the “QPatch % Inhibition, High Freq” value is listed as 25% and the “QPatch % Inhibition, Low Freq” value was found to be 24%. The 50% inhibitory concentration (IC50) in test [2] came out at 24 nM.

Consider `COc1ccccc1-n1nc(C2CC(C)(C)OC(C)(C)C2)cc1-c1ccc(OCCN2CCOCC2)cc1` [Compound 72, 4-(2-{4-[1-(2-Methoxyphenyl)-3-(2,2,6,6-tetramethyltetrahydro-2H-pyran-4-yl)-1H-pyrazol-5-yl]phenoxy}ethyl)morpholine], for which, in test [1], the “QPatch % Inhibition, High Freq” value is 11% and the “QPatch % Inhibition, Low Freq” value is recorded as 4%. Further, in test [2], the concentration for half-maximal inhibition (IC50) is 38 nM.

Turning to `CCN(CC)c1ccccc1-n1nc(C2CC(C)(C)OC(C)(C)C2)cc1-c1ccc(Cl)cc1` [Compound 73, 2-[5-(4-Chlorophenyl)-3-(2,2,6,6-tetramethyltetrahydro-2H-pyran-4-yl)-1H-pyrazol-1-yl]-N,N-diethylaniline], in test [1], the “QPatch % Inhibition, High Freq” value is on record as 1% and the “QPatch % Inhibition, Low Freq” value is −18%. Also, in test [2], the IC50 turned out to be 50 nM.

With `COc1ccc(-n2nc(C3CCOC(C)(C)C3)cc2-c2ccc(Cl)cc2)c(C)c1` (stereo not drawn) [Compound 75, 5-(4-Chlorophenyl)-3-(2,2-dimethyltetrahydro-2H-pyran-4-yl)-1-(4-methoxy-2-methylphenyl)-1H-pyrazole], in test [1], the “QPatch % Inhibition, High Freq” value is given as 67% and the “QPatch % Inhibition, Low Freq” value was found to be 45%. Also, the IC50 in test [2] worked out at 80 nM.

Take `COc1ccccc1-n1nc(C2=CC(C)(C)OC(C)(C)C2)cc1-c1ccc(Cl)cc1` [Compound 95, 5-(4-Chlorophenyl)-1-(2-methoxyphenyl)-3-(2,2,6,6-tetramethyl-3,6-dihydro-2H-pyran-4-yl)-1H-pyrazole]: in test [1], the “QPatch % Inhibition, High Freq” value was 26% and the “QPatch % Inhibition, Low Freq” value amounted to 14%. Further, in test [2], the half-maximal inhibitory concentration (IC50) was 3.4 nM.
